How the values were obtained:
[1] = test system: Cyperus serotinus, Rottb.; experiment: Preemergence weed control under flooded paddy conditions, CYPSE (Flatsedge); type: in vivo; conditions: for herbicidal effect rating, CYPSE: rated three to four weeks after treatment; for CYPSE: herbicidal effect rating 0-9, three to four weeks after treatment; as to herbicidal effect rating, CYPSE: meaning of each grade not given here
Cyperus iria = experiment: Preemergence weed control under flooded paddy conditions, CYPIR (Rice Flatsedge); type: in vivo; conditions: flooded paddy; for herbicidal effect rating, CYPIR: rated three to four weeks after treatment; for CYPIR: herbicidal effect rating 0-9, three to four weeks after treatment; as to herbicidal effect rating, CYPIR: meaning of each grade not given here
[2] = test system: Oryza sativa, (L.) Tebonnet; experiment: Rice tolerance to post-transplant applications under flooded paddy conditions (Example 187), ORYSAT (Rice, Tebonnet); conditions: for herbicidal effect rating ORYSAT: rated three to four weeks after treatment; for ORYSAT: herbicidal effect rating 0-9, three to four weeks after treatment; as to herbicidal effect rating ORYSAT: meaning of each grade not given here
Sagittaria pygmaea, L. = experiment: Preemergence weed control under flooded paddy conditions, SAGPY (Arrowhead (Pygmaea)); type: in vivo; conditions: flooded paddy; for herbicidal effect rating, SAGPY: rated three to four weeks after treatment; for SAGPY: herbicidal effect rating 0-9, three to four weeks after treatment; as to herbicidal effect rating, SAGPY: meaning of each grade not given here
[3] = test system: Echinochloa oryzoides (Ard.) Fritsch.; experiment: Preemergence weed control under flooded paddy conditions, ECHORC (Watergrass (Calif.)); type: in vivo; conditions: flooded paddy; for herbicidal effect rating, ECHORC: rated three to four weeks after treatment; for ECHORC: herbicidal effect rating 0-9, three to four weeks after treatment; as to herbicidal effect rating, ECHORC: meaning of each grade not given here
[4] = Rate 0.0320 kg/ha, preemergence
[5] = Rate 0.0620 kg/ha, preemergence
[6] = Rate 0.1250 kg/ha, preemergence
[7] = Rate 0.2500 kg/ha, preemergence
[8] = Rate 0.0320 kg/ha, preemergence weeds
[9] = Rate 0.0620 kg/ha, preemergence weeds
[10] = Rate 0.1250 kg/ha, preemergence weeds
[11] = Rate 0.2500 kg/ha, preemergence weeds
[12] = 0.0320 kg/ha, preemergence weeds
[13] = 0.0620 kg/ha, preemergence weeds
[14] = 0.2500 kg/ha, preemergence weeds
[15] = 0.1250 kg/ha, preemergence weeds

| Compound | herbicidal effect rating ORYSAT ([2]; Rate 0.0320 kg/ha) | herbicidal effect rating ORYSAT ([2]; Rate 0.0620 kg/ha) | herbicidal effect rating ORYSAT ([2]; Rate 0.1250 kg/ha) | herbicidal effect rating ORYSAT ([2]; Rate 0.2500 kg/ha) | herbicidal effect rating, CYPSE [1, 8] | herbicidal effect rating, CYPSE [1, 9] | herbicidal effect rating, CYPSE [1, 10] | herbicidal effect rating, CYPSE [1, 11] | herbicidal effect rating, CYPIR (Cyperus iria; [8]) | herbicidal effect rating, CYPIR (Cyperus iria; [9]) | herbicidal effect rating, CYPIR (Cyperus iria; [10]) | herbicidal effect rating, CYPIR (Cyperus iria; [11]) | herbicidal effect rating, SAGPY (Sagittaria pygmaea, L.; [8]) | herbicidal effect rating, SAGPY (Sagittaria pygmaea, L.; [9]) | herbicidal effect rating, SAGPY (Sagittaria pygmaea, L.; [10]) | herbicidal effect rating, SAGPY (Sagittaria pygmaea, L.; [11]) | herbicidal effect rating, ECHORC [3, 8] | herbicidal effect rating, ECHORC [3, 9] | herbicidal effect rating, ECHORC [3, 10] | herbicidal effect rating, ECHORC [3, 11] | also measured |
| --- | --- | --- | --- | --- | --- | --- | --- | --- | --- | --- | --- | --- | --- | --- | --- | --- | --- | --- | --- | --- | --- |
| C=CCOC(C)c1nsc2ccc(-n3c(=O)cc(C(F)(F)F)n(C)c3=O)cc12 (stereo not shown) [Example 351, 2,4(1H,3H)-Pyrimidinedione, 3-{3-[1-(allyloxy)ethyl]-1,2-benzisothiazol-5-yl}-1-methyl-6-(trifluoromethyl)-] | 7.0 | 7.0 | 7.0 | 9.0 |  |  |  |  |  |  |  |  |  |  |  |  |  |  |  |  | herbicidal effect rating, CYPSE [1, 4]: 0.0; herbicidal effect rating, CYPSE [1, 5]: 6.0; herbicidal effect rating, CYPSE [1, 6]: 6.0; herbicidal effect rating, CYPSE [1, 7]: 8.0; herbicidal effect rating, CYPIR (Cyperus iria; [4]): 6.0; herbicidal effect rating, CYPIR (Cyperus iria; [5]): 7.0; herbicidal effect rating, CYPIR (Cyperus iria; [6]): 7.0; herbicidal effect rating, CYPIR (Cyperus iria; [7]): 9.0; herbicidal effect rating, SAGPY (Sagittaria pygmaea, L.; [4]): 5.0; herbicidal effect rating, SAGPY (Sagittaria pygmaea, L.; [5]): 6.0; herbicidal effect rating, SAGPY (Sagittaria pygmaea, L.; [6]): 7.0; herbicidal effect rating, SAGPY (Sagittaria pygmaea, L.; [7]): 7.0; herbicidal effect rating, ECHORC [3, 4]: 5.0; herbicidal effect rating, ECHORC [3, 5]: 6.0; herbicidal effect rating, ECHORC [3, 6]: 6.0; herbicidal effect rating, ECHORC [3, 7]: 7.0 |
| Cn1c(C(F)(F)F)cc(=O)n(-c2ccc3snc(C(C)(Br)Br)c3c2)c1=O [Example 340, 2,4(1H,3H)-Pyrimidinedione, 3-[3-(1,1-dibromoethyl)-1,2-benzisothiazol-5-yl]-1-methyl-6-(trifluoromethyl)-] | 5.0 | 6.0 | 7.0 | 9.0 | 3.0 | 3.0 | 6.0 | 7.0 | 2.0 | 5.0 | 7.0 | 9.0 | 4.0 | 4.0 | 5.0 | 7.0 | 5.0 | 6.0 | 9.0 | 9.0 |  |
| Cn1c(C(F)(F)F)cc(=O)n(-c2ccc3snc(-c4ccccc4OCC(=O)NS(=O)(=O)CCl)c3c2)c1=O [Example 344, Acetamide, N-[(chloromethyl)sulfonyl]-2-{o-{5-[3,6-dihydro-3-methyl-2,6-dioxo-4-(trifluoromethyl)-1(2H)-pyrimidinyl]-1,2-benzisothiazol-3-yl}phenoxy}-] | 2.0 | 5.0 | 5.0 | 9.0 | 6.0 | 6.0 | 6.0 | 6.0 | 6.0 | 6.0 | 7.0 | 9.0 | 0.0 | 0.0 | 3.0 | 6.0 | 4.0 | 7.0 | 7.0 | 9.0 |  |
| CC(c1ccccc1)S(=O)(=O)NC(=O)c1nsc2ccc(-n3c(=O)cc(C(F)(F)F)n(C)c3=O)cc12 (stereo not drawn) [Example 427, 1,2-Benzisothiazole-3-carboxamide, 5-[3,6-dihydro-3-methyl-2,6-dioxo-4-(trifluoromethyl)-1(2H)-pyrimidinyl]-N-[(alpha-methylbenzyl)-sulfonyl]-] |  |  |  |  |  |  |  |  |  |  |  |  |  |  |  |  |  |  |  |  | CYPSE [1, 12]: 0.0; CYPSE [1, 13]: 0.0; CYPSE [1, 14]: 4.0; CYPIR (Cyperus iria; [12]): 7.0; CYPIR (Cyperus iria; [13]): 7.0; CYPIR (Cyperus iria; [15]): 7.0; CYPIR (Cyperus iria; [14]): 9.0; ORYSAT ([2]; 0.0320 kg/ha): 0.0; ORYSAT ([2]; 0.0620 kg/ha): 0.0; ORYSAT ([2]; 0.1250 kg/ha): 1.0; ORYSAT ([2]; 0.2500 kg/ha): 3.0; SAGPY (Sagittaria pygmaea, L.; [12]): 4.0; SAGPY (Sagittaria pygmaea, L.; [13]): 5.0; SAGPY (Sagittaria pygmaea, L.; [15]): 6.0; SAGPY (Sagittaria pygmaea, L.; [14]): 9.0; ECHORC [3, 12]: 7.0; ECHORC [3, 13]: 7.0; ECHORC [3, 15]: 9.0; ECHORC [3, 14]: 9.0 |
| Cn1c(C(F)(F)F)cc(=O)n(-c2ccc3snc(C(=O)CBr)c3c2)c1=O [Example 337, 2,4(1H,3H)-Pyrimidinedione, 3-[3-(bromoacetyl)-1,2-benzisothiazol-5-yl]-1-methyl-6-(trifluoromethyl)-] | 3.0 | 3.0 | 3.0 | 3.0 | 0.0 | 0.0 | 0.0 | 9.0 | 0.0 | 0.0 | 6.0 | 9.0 | 0.0 | 0.0 | 0.0 | 3.0 | 2.0 | 2.0 | 6.0 | 6.0 |  |
| COC(=O)C(C)Oc1ccc(OC)cc1-c1nsc2ccc(-n3c(=O)cc(C(F)(F)F)n(C)c3=O)cc12 (stereo not shown) [Example 348, Propionic acid, 2-{2-{5-[3,6-dihydro-3-methyl-2,6-dioxo-4-(trifluoromethyl)-1(2H)-pyrimidinyl]-1,2-benzisothiazol-3-yl}-4-methoxyphenoxy}-, methyl ester] | 2.0 | 3.0 | 4.0 | 5.0 | 0.0 | 0.0 | 0.0 | 0.0 | 0.0 | 0.0 | 6.0 | 9.0 | 4.0 | 6.0 | 7.0 | 9.0 | 6.0 | 6.0 | 7.0 | 9.0 |  |
| Cn1c(C(F)(F)F)cc(=O)n(-c2ccc3snc(C(=O)NS(=O)(=O)CCl)c3c2)c1=O [Example 334, 1,2-Benzisothiazole-3-carboxamide, N-[(chloromethyl)sulfonyl]-5-[3,6-dihydro-3-methyl-2,6-dioxo-4-(trifluoromethyl)-1(2H)-pyrimidinyl]-] | 0.0 | 0.0 | 3.0 | 3.0 | 0.0 | 0.0 | 2.0 | 2.0 | 3.0 | 5.0 | 6.0 | 6.0 | 0.0 | 0.0 | 4.0 | 4.0 | 0.0 | 0.0 | 0.0 | 3.0 |  |

Reference: patent EP0908457B1, “3-(1,2-benzisothiazol- and isoxazol-5-Y1)-2,4(1H,3H)-pyrimidinedione or thione and 3-(1,2-benzisothiazol- and isoxazol-5-y1)-4(3H)-pyrimidinone or thione herbicidal agents” (BASF AKTIENGESELLSCHAFT, priority 1997, dated 1999)
